# In ChEMBL document CHEMBL1150990, “Studies of the inactivation of general acyl-coa dehydrogenase by (1R)- and (1S)-(methylenecyclopropyl)acetyl-coa” (Bioorg Med Chem Lett, 1992):
# What was measured:
# [1] = Inactivation of general acyl-CoA dehydrogenase by the compound was determined and expressed as kinact
# [2] = Partition ratio of the inactivation of general acyl-CoA dehydrogenase by the compound was determined
Structure (SMILES),K inact [1] [s⁻¹],Ratio [2]
C=C1C[C@H]1CC(=O)SCCNC(=O)CCNC(=O)[C@H](O)C(C)(C)COP(=O)(O)OP(=O)(O)OC[C@H]1O[C@@H](n2cnc3c(N)ncnc32)[C@H](O)[C@@H]1OP(=O)(O)O,0.0163,4
C=C1C[C@@H]1CC(=O)SCCNC(=O)CCNC(=O)[C@H](O)C(C)(C)COP(=O)(O)OP(=O)(O)OC[C@H]1O[C@@H](n2cnc3c(N)ncnc32)[C@H](O)[C@@H]1OP(=O)(O)O,0.0173,3.4
